{
  "source": "patent US12622915B2",
  "about": "“Methods of treating PDE IV-mediated diseases or conditions” (Vanda Pharmaceuticals Inc., priority 2020, dated 2026)",
  "key": {"IMQ induced psoriasis": {"tested_on": "IMQ induced psoriasis", "description": "Test Item Details • 1. Dexamethasone Cat. or Batch no.: BCBM4557V (sigma) • Vehicle for dexamethasone (Veh.1): acetone:ethanol (1:1) • Dose: 0.1 mg/ear & 0.25 mg in back skin • Dose volume: 20 μL/ear & 50 μL on back skin • 2. Crisaborole: PZ0037 (Sigma) • Vehicle (Veh.1): acetone:ethanol (1:1) • Dose: 0.1 mg/ear & 0.25 mg in back skin • Dose volume: 20 μL/ear, 50 μL on back skin • 3. Compound of Formula (I) • Vehicle (Veh.1): acetone:ethanol (1:1) • Dose: 0.1 mg/ear & 0.25 mg in back skin • Dose volume: 20 μL/ear, 50 μL on back skin Dexamethasone and Test Item Preparation and Application: • Strength=5 mg/ml\nApplication=100 μg/20 pit per each ear+250 μg/50 μL on the back G2 to G4 receive Dexamethasone, Crisaborole or test item: Daily topical treatment (D0-D6): 0.1 mg in 20 μl per ear x both the ears+0.25 mg in 50 μl (on the back) 6-8 hrs after IMQ application.\nDisease Induction: Application of 5% IMQ cream 40 mg (back) and 5 mg (per ear—Inner surface) daily from day 0-6.\nTreatment: 0.5% Dexamethasone solution: 0.25 mg (back) and 0.1 mg (per ear) 8 hrs post IMQ. • Day −2—Depilation on back region • Day 0—Observations (Body weight; ear thickness using digital microcaliper) • Day 2—Observations (Body weight; ear thickness using digital microcaliper) • Day 4—Observations (Body weight; ear thickness using digital microcaliper) • Day 6—Observations (Body weight; ear thickness using digital microcaliper); Blood collection (PK) and Termination {2 hrs after last dose) • Ear collection: PK, Cytokine, MPO, Thickness • Back skin collection, scoring and thickness measurement • Histopathology (optional)\nThe dorsal posterior area (2 cm×2 cm) of animals is depilated using a hair trimmer. 5% Imiquimod cream: 50 mg/animal (40 mg on the shaved back+5 mg each on the inner part of right and left ear) QD is applied on days 0 to 5 (Groups 1-4).\nThe body weight is recorded individually for all animals at receipt, day of randomization, prior to treatment, and once in two days thereafter. The animals are observed for mortality at regular intervals.\n2 hrs post compound treatment on day 6, all the animals are euthanized, and ear tissues are collected. The right ear is flash frozen in liquid nitrogen and stored at −80° C. until homogenization for MPO and cytokine estimation.\nThe half of the left ear is used for drug concentration measurement. The other half of the left ear tissue is used for histopathology. The back skin is collected for visual assessment (scoring) and histopathology.\nMPO analysis: Snap frozen ear tissue samples are homogenized in 1× assay buffer provided in the kit. The homogenates are centrifuged at 8000 g for 10 minutes in a refrigerated centrifuge. The supernatants are discarded, and the pellet is resuspended in solubilisation buffer (1× assay buffer containing 0.5% HTABr). The samples are homogenized and subjected to three rounds of freeze thaw followed by brief sonication for 10s. The samples are centrifuged at 12,000 g for 10 minutes in a refrigerated centrifuge and the resulting supernatants are analysed for MPO levels based on a fluorometric detection kit. The Kit utilizes a non-fluorescent detection reagent, which is oxidized in the presence of hydrogen peroxide and MPO to produce its fluorescent analogue. (Enzo Life Sciences; ADI-907-029).\nHistopathology: At study termination, posterior dorsal skin and ear skin samples are collected. Skin samples are processed using routine histopathological methods and 4-5 μm paraffin sections are prepared. Tissue sections (3 serial sections/animal) are stained with Hematoxylin and eosin (H&E) to evaluate acanthosis, hyper/parakeratosis and inflammatory cellular infiltration in dermis. Severity of lesions are assessed semi quantitatively on a scale of 0-4 by two independent pathologists (0—normal, 1—mild degree, 2—moderate degree, 3—severe degree and 4—extensive or multiple locations) for each parameter in a blinded manner."}, "Phosphodiesterase PDE7B": {"target": "T1, Phosphodiesterase PDE7B (Homo sapiens, UniProt Q9NP56)", "T1 construct": "host or cells: insect Sf9 cells", "T1 sequence (Q9NP56 whole entry)": "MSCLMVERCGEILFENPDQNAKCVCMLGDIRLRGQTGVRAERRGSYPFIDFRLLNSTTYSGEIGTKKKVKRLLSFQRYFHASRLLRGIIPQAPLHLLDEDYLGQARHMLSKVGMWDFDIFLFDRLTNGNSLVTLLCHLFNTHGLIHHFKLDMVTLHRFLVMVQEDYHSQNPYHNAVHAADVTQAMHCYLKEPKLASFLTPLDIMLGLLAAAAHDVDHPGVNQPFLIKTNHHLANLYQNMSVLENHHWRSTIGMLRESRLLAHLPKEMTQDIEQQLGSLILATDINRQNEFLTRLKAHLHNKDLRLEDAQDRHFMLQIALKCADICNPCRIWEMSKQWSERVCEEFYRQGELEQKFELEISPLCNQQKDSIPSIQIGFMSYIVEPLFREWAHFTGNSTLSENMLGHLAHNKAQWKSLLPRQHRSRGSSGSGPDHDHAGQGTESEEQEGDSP", "assay": "Phosphodiesterase PDE7B enzyme assay", "format": "biochemical", "settings": "N=2, Example 3", "description": "Reference standards are run as an integral part of each assay to ensure the validity of the results obtained. Reference Compounds: • Phosphodiesterase PDE10A2 Papaverine • Phosphodiesterase PDE11A4 Dipyridamole • Phosphodiesterase PDE1A MMPX • Phosphodiesterase PDE2A EHNA • Phosphodiesterase PDE3A Cilostamide • Phosphodiesterase PDE4A1A Rolipram • Phosphodiesterase PDE4B1 Rolipram • Phosphodiesterase PDE5A Zaprinast • Phosphodiesterase PDE6 Zaprinast • Phosphodiesterase PDE7A IBMX • Phosphodiesterase PDE7B IBMX • Phosphodiesterase PDE8A1 Dipyridamole • Phosphodiesterase PDE9A2 Zaprinast\nPhosphodiesterase PDE4A1A; Phosphodiesterase PDE4B1; Phosphodiesterase PDE10A2; Phosphodiesterase PDE11A4; Phosphodiesterase PDE2A; Phosphodiesterase PDE3A; Phosphodiesterase PDE7A; Phosphodiesterase PDE7B; and Phosphodiesterase PDE8A1: • Source: Human recombinant insect Sf9 cells • Substrate: 0.10 μM FAM-cAMP • Vehicle: 1.00% DMSO • Significance Crit.: ≥50% of max stimulation or inhibition • Incubation Buffer: 10 mM Tris-HCl, pH 7.2, 10 mM MgCl2, 0.05% NaN3, 0.1% phosphate-free BSA • Quantitation Method: Quantitation of Fluorescein-AMP-IMAP • Pre-Incub. Time/Temp: 15 minutes @25° C. • Incubation Time/Temp: 30 minutes @25° C.\nIC50 values are determined by a non-linear, least squares regression analysis using MathIQ™ (ID Business Solutions Ltd., UK). […]"}, "[1]": {"settings": "topical 0.5%, ear skin, vs IMQ control"}, "[2]": {"settings": "topical 0.5%, maximum score 16, vs IMQ control"}},
  "data": [
    {"smiles": "CNc1nc(Nc2ccccc2)nc(OCC(F)(F)C(F)F)n1", "note": "[compound of Formula (I), N^2-methyl-N^4-phenyl-6-(2,2,3,3-tetrafluoropropoxy)-1,3,5-triazine-2,4-diamine]", "values": [
      {"measurement": "MPO activity in ear tissue homogenates", "setting": "IMQ induced psoriasis; day 6, topical 0.5%, vs IMQ control", "result": "do not show significant inhibition"},
      {"measurement": "Back skin thickness", "setting": "IMQ induced psoriasis; day 6 at termination, topical 0.5%, vs IMQ control", "result": "do not show significant reduction"},
      {"measurement": "Body weight / body weight loss", "setting": "IMQ induced psoriasis; mouse, in vivo", "result": "significantly less"},
      {"measurement": "Cumulative clinical scores (erythema, skin thickness, scales)", "setting": "IMQ induced psoriasis; topical 0.5%, back skin, maximum score 12, vs IMQ control", "result": "does not show any significant reduction"},
      {"measurement": "Extent of acanthosis, back skin (histopathology)", "setting": "IMQ induced psoriasis; topical 0.5%, back skin, vs IMQ control", "result": "reduction"},
      {"measurement": "Ear thickness", "setting": "IMQ induced psoriasis; topical 0.5%, daily, vs IMQ control", "result": "significant reduction in ear thickness on day 6"},
      {"measurement": "Cellular infiltration, ear (histopathology)", "setting": "IMQ induced psoriasis; [1]", "result": "significant reduction"},
      {"measurement": "Extent of acanthosis, ear (histopathology)", "setting": "IMQ induced psoriasis; [1]", "result": "significant reduction"},
      {"measurement": "Cumulative HP score of back skin", "setting": "IMQ induced psoriasis; [2]", "result": "significant reduction"},
      {"measurement": "Overall cumulative HP scores of ear skin", "setting": "IMQ induced psoriasis; [2]", "result": "significant reduction"},
      {"measurement": "Spleen weight or normalized spleen weight", "setting": "IMQ induced psoriasis; topical 0.5%, vs IMQ control", "result": "do not show significant reduction"},
      {"measurement": "Cytokine levels in ear tissue homogenates", "setting": "IMQ induced psoriasis; topical treatment, vs IMQ control", "result": "significant reduction in few of the proinflammatory cytokines"},
      {"measurement": "inhibition at 10 µM", "setting": "Phosphodiesterase PDE7B", "result": -1, "unit": "%"}
    ]}
  ]
}
